Results as given in US9901571B2, “Tetrahydropyrazolopyridine derivatives as ghrelin receptor agonists” (RaQualia Pharma Inc., priority 2014, dated 2018).

Key:
[1] = Half-life in human liver microsomes (HLM), HLM CLint; type: in vitro ADME; settings: for CLint scaled at 1 microM: human, human liver microsomes (XTreme 200), 1 microM test compound, 0.61 mg protein/mL HLM, pH 7.4, 37° C., read-out: HLM CLint (clearance in human liver microsome); for Ratio of HLM CLint over comparison 1: ratio between comparison compound 1 and the example
Protocol: Half-Life in Human Liver Microsomes (HLM)
Test compounds (1 microM) are incubated with 1 mM MgCl2 and 0.61 mg protein/mL HLM (XTreme 200) in 100 mM phosphate buffer (pH 7.4) at 37° C. on the 96-deep well plate. An aliquot of samples is collected at […], where 0 […] the time when NADPH is added into the reaction mixture. Collected aliquots are extracted with acetonitrile solution containing an internal standard. The precipitated protein is spun down in centrifuge (2000 rpm, […]). The compound concentration in supernatant is measured by LC/MS/MS system.
The half-life value is obtained by plotting the natural logarithm of the peak area ratio of compound/internal standard versus time. The slope of the line of the best fit through the points yields the elimination rate constant (kel). This is converted to a half-life value using a following equation: Half-life=1n2/kel.

human ghrelin receptor = target: T1, human ghrelin receptor (Homo sapiens, UniProt Q92847); assay: Ghrelin receptor agonistic activity induced Ca2+ influx in HEK293 cells stably expressing human ghrelin receptor; type: cell-based; settings: 11-point dose-response
T1 construct: expressed in transfected cells; host or cells: HEK293
T1 sequence (Q92847 whole entry): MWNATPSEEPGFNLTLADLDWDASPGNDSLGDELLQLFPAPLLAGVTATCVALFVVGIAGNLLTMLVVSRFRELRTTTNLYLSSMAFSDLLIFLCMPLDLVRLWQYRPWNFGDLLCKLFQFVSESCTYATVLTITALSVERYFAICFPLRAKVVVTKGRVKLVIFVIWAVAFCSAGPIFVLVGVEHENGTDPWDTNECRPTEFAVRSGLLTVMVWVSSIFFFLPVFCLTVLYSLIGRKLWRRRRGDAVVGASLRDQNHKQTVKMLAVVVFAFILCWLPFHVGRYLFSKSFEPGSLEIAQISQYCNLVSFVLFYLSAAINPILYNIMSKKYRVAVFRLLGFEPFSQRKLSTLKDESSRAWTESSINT
Protocol: Measurement of the ghrelin receptor agonistic activity induced Ca^2+ influx in HEK293 cells stably expressing human ghrelin receptor
HEK293 cells stably expressing human ghrelin receptor are maintained in Dulbecco's modified Eagle medium (high glucose) supplemented with 10% fetal bovine serum, 100 units/mL penicillin, 100 microg/mL streptomycin and 500 microg/mL G418 at 37° C. in a humidified incubator with 5% CO2 and grown to 60-80% confluence. The day before the assay, the cells are seeded on poly-D-lysine coated 384-well plates (BD FALCON) at a density of 10,000 cells per well and incubated overnight in incubator.
On the day of the assay, the cells are washed at three times with assay buffer (Hanks' balanced salt solution with 20 mM HEPES, pH7.4), and are incubated for 1 hour at room temperature to load 0.5 microM Fluo-4 AM reagent (Invitrogen).
After removing Fluo-4, and washing with assay buffer, the cells are added with various concentrations of the compounds. The changes in intracellular calcium concentration are monitored with the fluorescence imaging plate reader, FDSS6000 (Hamamatsu Photonics).
The EC50 values for compounds of the present invention are determined from 11-point dose-response studies. Curves are generated using the average of duplicate wells for each data point. Finally, the EC50 values are calculated using the best-fit dose curve determined by XLfit (ID Business Solutions Ltd).

Structure (SMILES) | CLint scaled at 1 microM [1] [mL/min/kg] | Ratio of HLM CLint over comparison 1 [1] | EC50 (human ghrelin receptor) [nM]
CN1N=C2CCN(C(=O)[C@@H](CCCc3cccc(C(F)F)n3)NC(=O)C(C)(C)N)C[C@@]2(Cc2ccccc2)C1=O [Example 13, 2-amino-N—((R)-1-((R)-3a-benzyl-2-methyl-3-oxo-3a,4,6,7-tetrahydro-2H-pyrazolo[4,3-c]pyridin-5(3H)-yl)-5-(6-(difluoromethyl)pyridin-2-yl)-1-oxopentan-2-yl)-2-methylpropanamide] | 36 | 3.6 | < 20
CN1N=C2CCN(C(=O)[C@@H](CCCc3ccccc3CO)NC(=O)C(C)(C)N)C[C@@]2(Cc2ccccc2)C1=O [Example 8, 2-amino-N—((R)-1-((R)-3a-benzyl-2-methyl-3-oxo-3a,4,6,7-tetrahydro-2H-pyrazolo[4,3-c]pyridin-5(3H)-yl)-5-(2-(hydroxymethyl)phenyl)-1-oxopentan-2-yl)-2-methylpropanamide] | 48.5 | 2.7 | < 20
CN1N=C2CCN(C(=O)[C@@H](CCCc3ccccn3)NC(=O)C(C)(C)N)C[C@@]2(Cc2ccccc2)C1=O [Example 9, 2-amino-N—((R)-1-((R)-3a-benzyl-2-methyl-3-oxo-3a,4,6,7-tetrahydro-2H-pyrazolo[4,3-c]pyridin-5(3H)-yl)-1-oxo-5-(pyridin-2-yl)pentan-2-yl)-2-methylpropanamide] | 19.7 | 6.6 | < 20
CN1N=C2CCN(C(=O)[C@@H](CCCc3cccc(CO)c3)NC(=O)C(C)(C)N)C[C@@]2(Cc2ccccc2)C1=O [Example 7, 2-amino-N—((R)-1-((R)-3a-benzyl-2-methyl-3-oxo-3a,4,6,7-tetrahydro-2H-pyrazolo[4,3-c]pyridin-5(3H)-yl)-5-(3-(hydroxymethyl)phenyl)-1-oxopentan-2-yl)-2-methylpropanamide] | 53.5 | 2.4 | < 20
CN1N=C2CCN(C(=O)[C@@H](CCCc3cccc(C(F)(F)F)n3)NC(=O)C(C)(C)N)C[C@@]2(Cc2ccccc2)C1=O [Example 10, 2-amino-N—((R)-1-((R)-3a-benzyl-2-methyl-3-oxo-3a,4,6,7-tetrahydro-2H-pyrazolo[4,3-c]pyridin-5(3H)-yl)-1-oxo-5-(6-(trifluoromethyl)pyridin-2-yl)pentan-2-yl)-2-methylpropanamide] | 44.2 | 2.9 | < 20
CN1N=C2CCN(C(=O)[C@@H](CCc3ccc(CO)cc3F)NC(=O)C(C)(C)N)C[C@@]2(Cc2ccccc2)C1=O [Example 4, 2-amino-N—((R)-1-((R)-3a-benzyl-2-methyl-3-oxo-3a,4,6,7-tetrahydro-2H-pyrazolo[4,3-c]pyridin-5(3H)-yl)-4-(2-fluoro-4-(hydroxymethyl)phenyl)-1-oxobutan-2-yl)-2-methylpropanamide] | 21.7 | 6.0 | < 20
CN1N=C2CCN(C(=O)[C@@H](CCc3cc(CO)ccc3F)NC(=O)C(C)(C)N)C[C@@]2(Cc2ccccc2)C1=O [Example 5, 2-amino-N—((R)-1-((R)-3a-benzyl-2-methyl-3-oxo-3a,4,6,7-tetrahydro-2H-pyrazolo[4,3-c]pyridin-5(3H)-yl)-4-(2-fluoro-5-(hydroxymethyl)phenyl)-1-oxobutan-2-yl)-2-methylpropanamide] | 44.6 | 2.9 | < 20
CN1N=C2CCN(C(=O)[C@@H](CCc3ccc(CO)cc3Cl)NC(=O)C(C)(C)N)C[C@@]2(Cc2ccccc2)C1=O [Example 3, 2-amino-N—((R)-1-((R)-3a-benzyl-2-methyl-3-oxo-3a,4,6,7-tetrahydro-2H-pyrazolo[4,3-c]pyridin-5(3H)-yl)-4-(2-chloro-4-(hydroxymethyl)phenyl)-1-oxobutan-2-yl)-2-methylpropanamide] | 43.5 | 3.0 | < 20
CC(C)(N)C(=O)N[C@H](CCc1ccc(F)cc1CO)C(=O)N1CCC2=NN(CC(F)(F)F)C(=O)[C@]2(Cc2ccccn2)C1 [Example 17, 2-amino-N—((R)-4-(4-fluoro-2-(hydroxymethyl)phenyl)-1-oxo-1-((R)-3-oxo-3a-(pyridin-2-ylmethyl)-2-(2,2,2-trifluoroethyl)-3a,4,6,7-tetrahydro-2H-pyrazolo[4,3-c]pyridin-5(3H)-yl)butan-2-yl)-2-methylpropanamide] | 56.7 | 2.3 | < 20
CC(C)(N)C(=O)N[C@H](CCc1ccccc1)C(=O)N1CCC2=NN(CC(F)(F)F)C(=O)[C@]2(Cc2ccccn2)C1 [Example 14, 2-amino-2-methyl-N—((R)-1-oxo-1-((R)-3-oxo-3a-(pyridin-2-ylmethyl)-2-(2,2,2-trifluoroethyl)-3a,4,6,7-tetrahydro-2H-pyrazolo[4,3-c]pyridin-5(3H)-yl)-4-phenylbutan-2-yl) propanamide] | 51.5 | 2.5 | < 20
CN1N=C2CCN(C(=O)[C@@H](CCc3ccccc3)NC(=O)C(C)(C)N)C[C@@]2(Cc2ccccc2)C1=O [Example 2, 2-amino-N—((R)-1-((R)-3a-benzyl-2-methyl-3-oxo-3a,4,6,7-tetrahydro-2H-pyrazolo[4,3-c]pyridin-5(3H)-yl)-1-oxo-4-phenylbutan-2-yl)-2-methylpropanamide] | 54.5 | 2.4 | < 20
